Laboratory results reported in publication PMC10215302 (Antibiotics, 2023).
Values after ≈ are worked out from the molar mass of the structure shown. Where two headings read alike, the source gives them in different places.

Experiments:
[1] = tested on: S. aureus SA0422; assay: microbe, parasite or virus in culture; settings: Staphylococcus aureus
[2] = tested on: S. aureus SA0077; assay: microbe, parasite or virus in culture; settings: Staphylococcus aureus
[3] = tested on: S. aureus SA0085; assay: microbe, parasite or virus in culture; settings: Staphylococcus aureus
[4] = tested on: S. aureus SA0736; assay: microbe, parasite or virus in culture; settings: Staphylococcus aureus
[5] = tested on: S. aureus ATCC 29213; assay: microbe, parasite or virus in culture; settings: Staphylococcus aureus
[6] = tested on: S. aureus SA0736
[7] = tested on: S. aureus RN4220
[8] = tested on: S. aureus SA0085; settings: for MIC values: Table S1: SA0085 Abf (passages on antibiotic-free media)
[9] = tested on: S. aureus ATCC 29213
[10] = tested on: S. aureus SA0077; settings: for MIC values: Table S1: SA0077 Abf (passages on antibiotic-free media)
[11] = tested on: S. aureus SA0422
[12] = ATCC29213, read-out: MIC values
[13] = SA0736, selecting agent DAP, passage 5
[14] = SA0736, selecting agent DAP, passage 20
[15] = SA0736, selecting agent DAP, passage 40Y (yellow colonies)
[16] = SA0736, selecting agent VAN, passage 0
[17] = SA0736, selecting agent VAN, passage 5
[18] = SA0736, selecting agent VAN, passage 40
[19] = Table S1: SA0736 DAP-W (40 passages on daptomycin, white colonies)
[20] = Table S1: SA0736 DAP-Y (40 passages on daptomycin, yellow colonies)
[21] = Table S1: RN4220 ∆ (strain with deletion in SACOL1927)
[22] = SA0085, selecting agent DAP, passage 5
[23] = SA0085, selecting agent DAP, passage 20
[24] = SA0085, selecting agent DAP, passage 40
[25] = SA0085, selecting agent VAN, passage 0
[26] = SA0085, selecting agent VAN, passage 5
[27] = SA0085, selecting agent VAN, passage 20
[28] = SA0085, selecting agent VAN, passage 40
[29] = ATCC 29213, selecting agent DAP, passage 5
[30] = ATCC 29213, selecting agent DAP, passage 20
[31] = ATCC 29213, selecting agent DAP, passage 40
[32] = ATCC 29213, selecting agent VAN, passage 0
[33] = ATCC 29213, selecting agent VAN, passage 5
[34] = ATCC 29213, selecting agent VAN, passage 20
[35] = ATCC 29213, selecting agent VAN, passage 40
[36] = SA0077, selecting agent DAP, passage 20
[37] = SA0077, selecting agent DAP, passage 40
[38] = SA0077, selecting agent VAN, passage 0
[39] = SA0077, selecting agent VAN, passage 5
[40] = SA0077, selecting agent VAN, passage 20
[41] = SA0077, selecting agent VAN, passage 40
[42] = SA0422, selecting agent DAP, passage 5
[43] = SA0422, selecting agent DAP, passage 20
[44] = SA0422, selecting agent DAP, passage 40
[45] = SA0422, selecting agent VAN, passage 0
[46] = SA0422, selecting agent VAN, passage 5
[47] = SA0422, selecting agent VAN, passage 20
[48] = SA0422, selecting agent VAN, passage 40
[49] = SA0422, read-out: MIC values, Table S1: SA0422 VAN (derivative after 40 passages on vancomycin)
[50] = SA0736, read-out: MIC values, Table S1: SA0736 VAN (derivative after 40 passages on vancomycin)
[51] = ATCC29213, read-out: MIC values, Table S1: ATCC 29213 DAP (derivative after 40 passages on daptomycin)

C/C(=C\C(=O)OCCCCCCCCC(=O)O)C[C@@H]1OC[C@H](C[C@@H]2O[C@H]2[C@@H](C)[C@H](C)O)[C@@H](O)[C@H]1O [Mupirocin]
MIC ([1]; SA0422, read-out: MIC values): 1 µg/mL (≈ 2 µM)
MIC ([2]; SA0077, read-out: MIC values): 0.5 µg/mL (≈ 0.999 µM)
MIC ([2]; SA0077, read-out: MIC values, Table S1: SA0077 Abf (passages on antibiotic-free media)): 1 µg/mL (≈ 2 µM)
MIC ([2]; SA0077, read-out: MIC values, Table S1: SA0077 VAN (derivative after 40 passages on vancomycin)): 1 µg/mL (≈ 2 µM)
MIC ([3]; SA0085, read-out: MIC values): 1 µg/mL (≈ 2 µM)
MIC ([4]; SA0736, read-out: MIC values): 1 µg/mL (≈ 2 µM)
MIC ([4]; SA0736, read-out: MIC values, Table S1: SA0736 DAP-W (40 passages on daptomycin, white colonies)): 0.5 µg/mL (≈ 0.999 µM)
MIC [5, 12]: 1 µg/mL (≈ 2 µM)

teicoplanin [TEC]
MIC [6, 13]: 0.25 µg/mL
MIC [6, 14]: 8 µg/mL
MIC ([6]; SA0736, selecting agent DAP, passage 40W (white colonies)): 8 µg/mL
MIC [6, 15]: 8 µg/mL
MIC [6, 16]: 0.25 µg/mL
MIC [6, 17]: 4 µg/mL
MIC [6, 18]: 8 µg/mL
MIC values [6, 19]: 8 µg/mL
MIC values [6, 20]: 8 µg/mL
MIC values ([7]; Table S1: RN4220 WT): 0.25 µg/mL
MIC values [7, 21]: 0.25 µg/mL
MIC [8, 22]: 0.125 µg/mL
MIC [8, 23]: 8 µg/mL
MIC [8, 24]: 8 µg/mL
MIC [8, 25]: 0.125 µg/mL
MIC [8, 26]: 1 µg/mL
MIC [8, 27]: 2 µg/mL
MIC [8, 28]: 8 µg/mL
MIC values [8]: .125 µg/mL
MIC [9, 29]: 0.5 µg/mL
MIC [9, 30]: 2 µg/mL
MIC [9, 31]: 4 µg/mL
MIC [9, 32]: 0.06 µg/mL
MIC [9, 33]: 0.06 µg/mL
MIC [9, 34]: 2 µg/mL
MIC [9, 35]: 8 µg/mL
MIC [10, 36]: 0.25 µg/mL
MIC [10, 37]: 0.25 µg/mL
MIC [10, 38]: 0.25 µg/mL
MIC [10, 39]: 8 µg/mL
MIC [10, 40]: 8 µg/mL
MIC [10, 41]: 8 µg/mL
MIC values [10]: .125 µg/mL
MIC [11, 42]: 0.25 µg/mL
MIC [11, 43]: 1 µg/mL
MIC [11, 44]: 1 µg/mL
MIC [11, 45]: 0.5 µg/mL
MIC [11, 46]: 2 µg/mL
MIC [11, 47]: 4 µg/mL
MIC [11, 48]: 4 µg/mL

oritavancin
MIC [6, 13]: <0.03 µg/mL
MIC [6, 14]: 2 µg/mL
MIC [6, 15]: 4 µg/mL
MIC [6, 16]: <0.03 µg/mL
MIC [6, 17]: 0.25 µg/mL
MIC ([6]; SA0736, selecting agent VAN, passage 20): 2 µg/mL
MIC [6, 18]: 2 µg/mL
MIC values [6, 19]: 4 µg/mL
MIC values [6, 20]: 4 µg/mL
MIC values ([7]; Table S1: RN4220 WT): 0.016 µg/mL
MIC values [7, 21]: 0.016 µg/mL
MIC [8, 22]: <0.03 µg/mL
MIC [8, 23]: 0.06 µg/mL
MIC [8, 24]: 1 µg/mL
MIC [8, 25]: <0.03 µg/mL
MIC [8, 26]: 0.06 µg/mL
MIC [8, 27]: 2 µg/mL
MIC [8, 28]: 1 µg/mL
MIC values [8]: < 0.03 µg/mL
MIC [9, 29]: 0.06 µg/mL
MIC [9, 30]: 0.125 µg/mL
MIC [9, 31]: 2 µg/mL
MIC [9, 32]: 0.06 µg/mL
MIC [9, 33]: 0.06 µg/mL
MIC [9, 34]: 0.06 µg/mL
MIC [9, 35]: 4 µg/mL
MIC ([10]; SA0077, selecting agent DAP, passage 5): 2 µg/mL
MIC [10, 36]: 4 µg/mL
MIC [10, 37]: 4 µg/mL
MIC [10, 38]: <0.03 µg/mL
MIC [10, 39]: 0.125 µg/mL
MIC [10, 40]: 2 µg/mL
MIC [10, 41]: 2 µg/mL
MIC values [10]: 0.06 µg/mL
MIC [11, 42]: 0.125 µg/mL
MIC [11, 43]: 0.5 µg/mL
MIC [11, 44]: 0.5 µg/mL
MIC [11, 45]: <0.03 µg/mL
MIC [11, 46]: 0.06 µg/mL
MIC [11, 47]: 0.25 µg/mL
MIC [11, 48]: 0.5 µg/mL

CC(=O)O[C@H]1C[C@@]2(C)[C@@H](C[C@@H](O)[C@H]3[C@@]4(C)CC[C@@H](O)[C@@H](C)[C@@H]4CC[C@@]32C)/C1=C(\CCC=C(C)C)C(=O)O [Fusidic acid]
MIC ([1]; SA0422, read-out: MIC values): 0.125 µg/mL (≈ 0.242 µM)
MIC ([1]; SA0422, read-out: MIC values, Table S1: SA0422 DAP (derivative after 40 passages on daptomycin)): 0.06 µg/mL (≈ 0.116 µM)
MIC [1, 49]: 0.06 µg/mL (≈ 0.116 µM)
MIC ([2]; SA0077, read-out: MIC values): 0.06 µg/mL (≈ 0.116 µM)
MIC ([3]; SA0085, read-out: MIC values): 0.125 µg/mL (≈ 0.242 µM)
MIC ([4]; SA0736, read-out: MIC values): 0.06 µg/mL (≈ 0.116 µM)
MIC [4, 50]: 0.125 µg/mL (≈ 0.242 µM)
MIC [5, 12]: 0.25 µg/mL (≈ 0.484 µM)
MIC [5, 51]: 0.125 µg/mL (≈ 0.242 µM)

CO[C@H]1/C=C/O[C@@]2(C)Oc3c(C)c(O)c4c(O)c(c(/C=N/N5CCN(C)CC5)c(O)c4c3C2=O)NC(=O)/C(C)=C\C=C\[C@H](C)[C@H](O)[C@@H](C)[C@@H](O)[C@@H](C)[C@H](OC(C)=O)[C@@H]1C [Rifampicin]
MIC ([1]; SA0422, read-out: MIC values): 0.004 µg/mL (≈ 0.00486 µM)
MIC ([2]; SA0077, read-out: MIC values): 0.004 µg/mL (≈ 0.00486 µM)
MIC ([3]; SA0085, read-out: MIC values): > 4 µg/mL
MIC ([4]; SA0736, read-out: MIC values): 0.004 µg/mL (≈ 0.00486 µM)
MIC [4, 50]: 0.016 µg/mL (≈ 0.0194 µM)
MIC [5, 12]: 0.004 µg/mL (≈ 0.00486 µM)

CN(C)[C@@H]1C(O)=C(C(N)=O)C(=O)[C@@]2(O)C(O)=C3C(=O)c4c(O)cccc4[C@@](C)(O)[C@H]3C[C@@H]12 [Tetracycline]
MIC ([1]; SA0422, read-out: MIC values): 0.06 µg/mL (≈ 0.135 µM)
MIC [1, 49]: 0.125 µg/mL (≈ 0.281 µM)
MIC ([2]; SA0077, read-out: MIC values): 0.06 µg/mL (≈ 0.135 µM)
MIC ([3]; SA0085, read-out: MIC values): 32 µg/mL (≈ 72 µM)
MIC ([3]; SA0085, read-out: MIC values, Table S1: SA0085 DAP (derivative after 40 passages on daptomycin)): 16 µg/mL (≈ 36 µM)
MIC ([3]; SA0085, read-out: MIC values, Table S1: SA0085 VAN (derivative after 40 passages on vancomycin)): 0.125 µg/mL (≈ 0.281 µM)
MIC ([4]; SA0736, read-out: MIC values): 16 µg/mL (≈ 36 µM)
MIC [5, 12]: 0.125 µg/mL (≈ 0.281 µM)
MIC [5, 51]: 0.06 µg/mL (≈ 0.135 µM)
MIC ([5]; ATCC29213, read-out: MIC values, Table S1: ATCC 29213 VAN (derivative after 40 passages on vancomycin)): 0.5 µg/mL (≈ 1.13 µM)
